According to patent US20240174728A1, “A USE OF A POLYPEPTIDE COMPOUND IN THE PREPARATION OF DRUGS FOR PREVENTING OR TREATING INFLAMMATORY BOWEL DISEASES AND RELATED INTESTINAL FIBROSIS” (Shenzhen Turier Biotech Co., Ltd., priority 2021, published 2024):
Starred links: 1 amine or outer side, 2 acyl side, 3 side chain; linkers in the order of their positions; H or OH if unused. Non-standard residues stand in square brackets, D forms with d. Groups on a side chain read outwards from the residue. Primed or numbered codes have the meaning given here. No end group written: not given here. *: point of attachment. C20 diacid = O=C(O)CCCCCCCCCCCCCCCCCCC(=O)*; γGlu = O=C(O)[C@H](CCC(=O)[*:2])N[*:1]; Iva = CC[C@](C)(N)C(=O)O; PEG2′ = not defined here; Aib = CC(C)(N)C(=O)O

Columns and labels:
[1] = test system: DSS induced acute intestinal fibrosis model of mouse; test: DSS induced acute intestinal fibrosis model of mouse (Example 2); format: in vivo, Balb/c mice; settings: 3% DSS Day 1-7, compared with model group; for blue staining area of colon tissues, area ratio of blue collagen fibers to colon tissue in Masson staining (FIG. 4B): #P≤0.05; for content of serum IL-6 (FIG. 7) / content of serum MMP-12 (FIG. 7) / collagenous fiber of colon tissues, Masson stained slice (FIG. 4A) / colon Ly-6g+ cells (neutrophile granulocyte infiltration), immunohistochemical staining (FIG. 6) / colon mucous layer α-SMA protein expression, immunohistochemical staining (FIG. 5): 120 μg/kg s.c. once/day; for content of serum IL-6 (FIG. 7) / content of serum MMP-12 (FIG. 7): 9th day serum, ##P≤0.01
Description: The DSS in this example is purchased from MP Biomedicals (CAS No.: 9011-18-1), and the positive control compound 6-thioguanine (6-TG) is a compound based on prior art and is purchased from Shanghai Aladdin Biochemical Technology Co., Ltd. (CAS No.: 154-42-7).
(§1) After 7 days of adaptive feeding, 114 Balb/c mice of 6-8 weeks age (purchased from Guangdong Medical Laboratory Animal Center, with weight approx. 16-20 g) are subjected to the experiment. Then randomly put the mice into 19 groups, with 6 mice in each group. The groups are normal group, model group, 6-TG group and polypeptide compound groups 1-16.
Model the 19 groups of mice and administer the drug to them for 8 days. In the 8 days, the normal group is given normal drinking water and is given subcutaneous injection of PBS once every day. From Day 1 to Day 7, the model group drinks 3% DSS and is given subcutaneous injection of PBS once every day. On Day 8, 3% DSS is replaced with normal drinking water and subcutaneous injection of PBS is given once. From Day 1 to Day 7, the 6-TG group drinks 3% DSS and is given 2 mg/kg 6-TG by the means of gavage once every day. On Day 8, 3% DSS is replaced with normal drinking water and 2 mg/kg 6-TG is given by the means of gavage once. From Day 1 to Day 7, the polypeptide compound groups 1-16 drink 3% DSS and are given subcutaneous injection of 120 μg/kg polypeptide compounds 1-16 once every day. On Day 8, 3% DSS is replaced with normal drinking water and subcutaneous injection of 120 μg/kg polypeptide compounds 1-16 is given once.
In the drug administration period, the randomly selected polypeptide compound groups 3, 8, 11, 12, 13 and 14 and the normal group, model group and 6-TG group are used for testing, and the body weight, feces consistency and feces OB of the mice are recorded every day. The GraphPad Prism 8.3.0 software is used to plot the data into a diagram. Feces OB is measured by the benzidine method.
On the 9th day, all mice are killed. The serums and colon tissues of the mice are collected. The colon and cecum of the mice are removed together. The colon length is measured. The GraphPad Prism 8.3.0 software is used to plot the data into a diagram.
The serums of the mice from the randomly selected polypeptide compound groups 3, 8, 11, 12, 13 and 14 of the present invention and the normal group and model group are used for cytokine test.
(§2) The colons of the mice from the randomly selected polypeptide compound groups 3, 8, 11, 12, 13 and 14 and the normal group, model group and 6-TG group in the present invention are taken. Approx. 5 mm of intestinal segment is taken from the distal end of each colon and is fixed in 10% formalin. The specimens are fixed, dehydrated, wrapped in paraffin and sliced (5 μm). Then tissue HE staining, Masson staining, α-SMA α-SMA protein immunohistochemical staining and Ly-6g protein immunohistochemical staining are completed.

[2] = test system: DSS induced chronic intestinal fibrosis model of mouse; test: DSS induced chronic intestinal fibrosis model of mouse (Example 3, three cycles); format: in vivo, Balb/c mice; settings: 2% DSS 5 days then water 2 weeks, 3 cycles, 120 μg/kg s.c. once/day, compared with model group; for blue staining area of colon tissues, area ratio of blue collagen fibers to colon tissue in Masson staining (FIG. 11B): #P≤0.05, ##P≤0.01; for content of serum IL-6 (FIG. 13) / content of serum MMP-8 (FIG. 13): serum at end of three cycles
Description: as §1
In the whole process, the normal group is given normal drinking water and is given subcutaneous injection PBS once every day. The model group is first given 2% DSS for 5 days and then given normal drinking water for 2 weeks. This is 1 cycle. The cycle is done 3 times. Subcutaneous injection of PBS is given once every day. The 6-TG group is first given 2% DSS for 5 days and then given normal drinking water for 2 weeks. This is 1 cycle. The cycle is done 3 times. 2 mg/kg 6-TG is given by the means of gavage once every day. The polypeptide compound groups 1-16 are first given 2% DSS for 5 days and then given normal drinking water for 2 weeks. This is 1 cycle. The cycle is done 3 times. Subcutaneous injection of 120 μg/kg polypeptide compounds 1-16 is given once every day.
During the administration period, the polypeptide compound groups 3, 8, 11, 12, 13 and 14 and the normal group, model group and 6-TG group are randomly selected, and the body weight, feces consistency and feces OB of the mice are recorded every day. The GraphPad Prism 8.3.0 software is used to plot the data into a diagram.
After completion of the 3rd cycle, the mice are dissected. The serums and colon tissues of the mice are collected. The colon and cecum are removed together. The colon length is measured. The GraphPad Prism 8.3.0 software is used to plot the data into a diagram.
The serums of the mice from the randomly selected polypeptide compound groups 3, 8, 11, 12, 13 and 14 and the normal group and model group of the present invention are used for cytokine test.
as §2, with “normal” for “normal group, model”, “model” for “6-TG”, “Masson” for “Masson staining, α-SMA α-SMA protein immunohistochemical”, “Fibronectin” for “Ly-6g”

[3] = polypeptide 120 μg/kg s.c. or 6-TG 2 mg/kg p.o. once/day, Day 1 to Day 8
[4] = polypeptide 120 μg/kg s.c. or 6-TG 2 mg/kg p.o. once/day

Compound	body weight (daily conditions, FIG. 2) [1, 3]	loose feces and hematochezia conditions (feces consistency and feces OB scores, FIG. 2) [1, 3]	colon tissue morphology, HE stained slice (FIG. 3) [1, 4]	blue staining area of colon tissues, area ratio of blue collagen fibers to colon tissue in Masson staining (FIG. 4B) [1, 4]	content of serum IL-6 (FIG. 7) [1]	content of serum MMP-12 (FIG. 7) [1]	collagenous fiber of colon tissues, Masson stained slice (FIG. 4A) [1]	colon Ly-6g+ cells (neutrophile granulocyte infiltration), immunohistochemical staining (FIG. 6) [1]	colon mucous layer α-SMA protein expression, immunohistochemical staining (FIG. 5) [1]	collagenous fiber of colon tissues, Masson stained slice (FIG. 11A) [2]	colon mucous layer Fibronectin protein expression, immunohistochemical staining (FIG. 12) [2]	colon tissue morphology, HE stained slice (FIG. 10) [2]	blue staining area of colon tissues, area ratio of blue collagen fibers to colon tissue in Masson staining (FIG. 11B) [2]	content of serum IL-6 (FIG. 13) [2]	content of serum MMP-8 (FIG. 13) [2]
Nc1nc2nc[nH]c2c(=S)[nH]1 [Compound 6-TG, 6-thioguanine, reference compound]	decrease the body weight	noticeably improve the loose feces and hematochezia conditions	relatively improved	not improved	–	–	–	–	–	–	–	–	–	–	–
His-(D-Ser)-Gln-Gly-Thr-Phe-Thr-Ser-Asp-Lys(Gly-Gly-Ser-Gly-Ser-Gly-γGlu-CO(CH2)18-COOH)-Ser-Lys-Tyr-Leu-Glu-Aib-Lys-Ala-Ala-Gln-Asp-Phe-Val-Glu-Trp-Leu-Lys-Ala-Gly-Gly-Pro-Ser-Ser-Gly-Ala-Pro-Pro-Pro-Ser (HXQGTFTSDKSKYLEXKAAQDFVEWLKAGGPSSGAPPPS; D-Ser, Aib, γGlu-C20 diacid lipidation; Compound 13; (2)..(2) X=D-Ser; (10)..(10) A side chain of Lys is linked to -Gly-Gly-Ser-Gly-Ser-Gly-AGlu-CO(CH2)18-COOH; (16)..(16) X=Aib)	–	–	become intact	noticeably decrease	clearly decreases	clearly decreases	noticeably decrease	clearly decrease	clearly decreased	noticeably decrease	clearly decreased	become intact	noticeably decrease	clearly decreases	clearly decreases
His-(D-Ser)-Gln-Gly-Thr-Phe-Thr-Ser-Asp-Lys(Gly-Gly-Ser-Gly-Ser-Gly-γGlu-CO(CH2)18-COOH)-Ser-Lys-Tyr-Leu-Glu-Aib-Lys-Ala-Ala-Gln-Asp-Phe-Val-Glu-Trp-Leu-Lys-Ala-Gly-Gly-Pro-Ser-Ser-Gly-Ala-Pro-Pro-Pro-Ser-NH2 (HXQGTFTSDKSKYLEXKAAQDFVEWLKAGGPSSGAPPPS; D-Ser, Aib, γGlu-C20 diacid lipidation, C-amide; Compound 14; (2)..(2) X=D-Ser; (10)..(10) A side chain of Lys is linked to -Gly-Gly-Ser-Gly-Ser-Gly-AGlu-CO(CH2)18-COOH; (16)..(16) X=Aib)	–	–	become intact	noticeably decrease	clearly decreases	clearly decreases	noticeably decrease	clearly decrease	clearly decreased	noticeably decrease	clearly decreased	become intact	noticeably decrease	clearly decreases	clearly decreases
His-(D-Ser)-Gln-Gly-Thr-Phe-Thr-Ser-Asp-Lys(PEG2-PEG2-γGlu-CO(CH2)18CO2H)-Ser-Lys-Tyr-Leu-Asp-Glu-Arg-Ala-Ala-Gln-Asp-Phe-Iva-Gln-Trp-Leu-Leu-Asp-Gly-Gly-Pro-Ser-Ser-Gly-Aib-Pro-Pro-Pro-Ser-NH2 (H[dS]QGTFTSDK([PEG2′-PEG2′-γGlu-C20 diacid])SKYLDERAAQDF[Iva]QWLLDGGPSSG[Aib]PPPS-NH2) [Compound 12]	–	–	become intact	noticeably decrease	clearly decreases	clearly decreases	noticeably decrease	clearly decrease	clearly decreased	noticeably decrease	clearly decreased	become intact	noticeably decrease	clearly decreases	clearly decreases
His-(D-Ser)-Gln-Gly-Thr-Phe-Thr-Ser-Asp-Lys(PEG2-PEG2-γGlu-CO(CH2)18CO2H)-Ser-Lys-Tyr-Leu-Glu-Aib-Lys-Ala-Ala-Gln-Asp-Phe-Val-Glu-Trp-Leu-Lys-Ala-Gly-Gly-Pro-Ser-Ser-Gly-Ala-Pro-Pro-Pro-Ser-NH2 (H[dS]QGTFTSDK([PEG2′-PEG2′-γGlu-C20 diacid])SKYLE[Aib]KAAQDFVEWLKAGGPSSGAPPPS-NH2) [Compound 3]	–	–	become intact	noticeably decrease	clearly decreases	clearly decreases	noticeably decrease	clearly decrease	clearly decreased	noticeably decrease	clearly decreased	become intact	noticeably decrease	clearly decreases	clearly decreases
